Experimental findings from patent US20230227453A1 (priority 2020, published 2023) are described below.

Each structure is given as a SMILES string.

The term EC50 denotes the concentration giving half of the maximal effect. As usually defined, the IC50 is the midpoint of a concentration-inhibition curve.

For assay [1], the target named is T1, 5-HT2A (Homo sapiens, UniProt P28223). As to the kind of experiment: Serotonin 5-HT2A in vitro cellular IPOne agonism assay. As to conditions: CHO-K1 cells, IPOne HTRF, 60 min. More on the design: host or cells: CHO-K1. It counts as cell-based. How it is done: Serotonin 5-HT2A In Vitro Cellular IPOne Agonism Assay. The 5-HT2A IPOne HTRF assay was performed at Epics Therapeutics S.A. (Belgium, FAST-0505I) using conventional methods. Briefly, CHO-K1 cells expressing human recombinant 5-HT2A receptor grown to mid-log phase in culture media without antibiotics were detached with PBS-EDTA, centrifuged, and resuspended in medium without antibiotics buffer. 20,000 cells are distributed in a 96 well plate and incubated overnight at 37° C. with 5% CO2.
T1 sequence (P28223 whole entry): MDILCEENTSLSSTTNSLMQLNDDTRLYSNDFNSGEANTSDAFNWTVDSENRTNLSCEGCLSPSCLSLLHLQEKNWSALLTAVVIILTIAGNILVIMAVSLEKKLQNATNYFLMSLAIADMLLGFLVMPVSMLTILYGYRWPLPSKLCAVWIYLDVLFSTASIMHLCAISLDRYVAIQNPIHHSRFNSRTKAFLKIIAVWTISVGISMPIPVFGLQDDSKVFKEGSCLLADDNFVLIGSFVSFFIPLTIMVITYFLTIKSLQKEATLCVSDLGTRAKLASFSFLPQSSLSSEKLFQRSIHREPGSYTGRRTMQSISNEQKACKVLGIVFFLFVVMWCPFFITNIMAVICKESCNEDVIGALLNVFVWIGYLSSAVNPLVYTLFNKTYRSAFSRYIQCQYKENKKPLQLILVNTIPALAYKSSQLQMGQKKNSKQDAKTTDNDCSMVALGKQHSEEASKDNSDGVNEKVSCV
For agonist testing, the medium is removed and 20 μl of assay buffer plus 20 μl of test compound or reference agonist are added in each well. The plate is incubated for 60 min. at 37° C. with 5% CO2.
After addition of the lysis buffer containing IP1-d2 and anti-IP1 cryptate detection reagents, plates are incubated 1-hour at room temperature, and fluorescence ratios are measured according to the manufacturer specification, with the HTRF kit.

Assay [2] concerns the target T1, 5-HT2A. As to the kind of experiment: Serotonin 5-HT2A in vitro radioligand binding competition assay. More on the design: purchased Epics Therapeutics S.A. (Belgium) FAST-0505B; host or cells: membrane extracts. The settings on record: radiotracer [3H]-DOI, membrane extracts. How it is done:
Serotonin 5-HT2A In Vitro Radioligand Binding Competition Assay. The 5-HT2A radioligand binding competition assay was performed at Epics Therapeutics S.A. (Belgium, FAST-0505B) using conventional methods. Briefly, competition binding is performed in duplicate in the wells of a 96 well plate (Master Block, Greiner, 786201) containing binding buffer (optimized for each receptor), membrane extracts (amount of protein/well optimized for each receptor), radiotracer [^3H]-DOI (final concentration optimized for each receptor) and test compound. Nonspecific binding is determined by co-incubation with 200-fold excess of cold competitor. The samples are incubated in a final volume of 0.1 ml at a temperature and for a duration optimized for each receptor and then filtered over filter plates. Filters are washed six times with 0.5 ml of ice-cold washing buffer (optimized for each receptor) and 50 μl of Microscint 20 (Packard) are added in each well. The plates are incubated 15 min on an orbital shaker and then counted with a TopCount™ for 1 min/well.

The test system of another assay is rat cortical neurons. The experiment in a line: Neurite Outgrowth Assay (Procedure B). It counts as cell-based. More on the design: key: A: Statistically significant mean increase as a percent of DMSO control at 10 μM or less; B: No statistically significant mean increase as a percent of DMSO control at 10 μM or less. The settings on record: primary rat neuronal cultures, 72h, vs DMSO control, 10 μM or less. How it is done: Neurite Outgrowth Assay (Procedure B). Pregnant Wistar rats (Janvier; France) were used for the study. They were delivered 6 days before their use. Upon arrival at Neurofit animal facility, they were housed one per cage and maintained in a room with controlled temperature (21-22° C.) and a reversed light-dark cycle (12h/12h; lights on: 17:30-05:30; lights off: 05:30-17:30) with food and water available ad libitum.
Female Wistar rats of 17 days gestation were killed by cervical dislocation and the fetuses were removed from the uterus. Their brains were placed in ice-cold medium of Leibovitz (L15, Gibco, Fisher bioblock, France). Cortices were dissected and meninges were carefully removed. The cortical neurons were dissociated by trypsinization for 30 min at 37° C. (trypsin-EDTA, Gibco) in presence of 0.1 mg/ml DNAse I (Roche, France). The reaction was stopped by addition of Dulbecco's Modified Eagle Medium (DMEM; Gibco) with 10% of fetal bovine serum (FBS; Gibco). The suspension was triturated with a 10-ml pipette and using a needle syringe 21G and centrifuged at 350×g for 10 min at room temperature. The pellet of dissociated cells was resuspended in a medium consisting of Neurobasal (Gibco) supplemented with 2% B27 supplement (Gibco), 0.5 mM L-Glutamine (Gibco), an antibiotic-antimicotic mixture. Viable cells were counted in a Neubauer cytometer using the trypan blue exclusion test (Sigma). Cells were seeded at a density of 10000 cells per well in 96-well plate (Costar) precoated with poly-L-lysine. Test compound at different concentrations were added to the cultures. Donepezil (positive control) was tested at 250 nM.
After 72h (3 days) of plating, cultures were fixed with paraformaldehyde in PBS (4%, Sigma) for 30 min at 4° C. Then, cells were successively permeabilized with 0.1% Triton X100 for 30 min, saturated with PBS containing 3% of BSA and were incubated 1 h with anti-beta III tubulin antibody (Sigma) at 1/10 000 in PBS containing 0.5% of BSA. Cells were washed three times with PBS containing 0.5% of BSA, and they were incubated 1 h with goat anti-mouse antibody coupled with AF488 (Invitrogen A11001) diluted at 1/1000 in PBS containing 0.5% of BSA. Finally, nuclei were staining with DAPI 1 mg/ml at 1/1000 in PBS containing 0.5% of BSA. After rinsing with PBS, the plate was filmed and neurite networks were examined and analyzed using High-Content Screening (Celllnsight, Thermo Scientific). The average number of neurites per neuron and the average total length of neurites per neuron were the main parameters analyzed. Analysis of data was performed using analysis of variance (ANOVA). The Fisher's Protected Least Significant Difference test was used for multiple comparisons. A p value≤0.05 was considered significant. The software used is StatView 5.0 from SAS Institut.

The compound `Cc1ccc2c3c([nH]c2n1)CCNCC3` [Example 8, 2-methyl-5,6,7,8,9,10-hexahydropyrido[3′,2′:4,5]pyrrolo[2,3-d]azepine] yielded an EC50 on 5-HT2A [1] of 101 to 1000 nM. The same compound came in with an IC50 at 5-HT2A [2] of 1000 to 10000 nM. In the assay on rat cortical neurons, the “Increase in Neurite Length” value was “B” and the “Increase in Neurite Number” value is “B”.
In turn, `Cc1ccc2c3c(n(C)c2n1)CCNCC3` [Example 10, 2,10-dimethyl-5,6,7,8,9,10-hexahydropyrido[3′,2′:4,5]pyrrolo[2,3-d]azepine] had an EC50 at 5-HT2A [1] of 10 to 100 nM. Moreover, on 5-HT2A [2], the IC50 is 1000 to 10000 nM.
With `CN1CCc2[nH]c3nc(Br)ccc3c2CC1` [Example 19, 2-bromo-7-methyl-5,6,7,8,9,10-hexahydropyrido[3′,2′:4,5]pyrrolo[2,3-d]azepine], the EC50 at 5-HT2A [1] lay in the range of 101 to 1000 nM. The compound also registered an IC50 at 5-HT2A [2] of 1000 to 10000 nM.
In the same order, the values of `COc1ccc2c3c(n(C)c2n1)CCN(C1COC1)CC3` [Example 6, 2-methoxy-10-methyl-7-(oxetan-3-yl)-5,6,7,8,9,10-hexahydropyrido[3′,2′:4,5]pyrrolo[2,3-d]azepine] are 1000 to 10000 nM and above 10000 nM.
On to `Cc1ccc2c3c(n(C)c2n1)CCN(C1COC1)CC3` [Example 11, 2,10-dimethyl-7-(oxetan-3-yl)-5,6,7,8,9,10-hexahydropyrido[3′,2′:4,5]pyrrolo[2,3-d]azepine], for which the concentration giving a half-maximal response (EC50) at 5-HT2A [1] was above 10000 nM. The half-maximal inhibitory concentration (IC50) on 5-HT2A [2] is above 10000 nM. Besides, in the assay on rat cortical neurons, the “Increase in Neurite Length” value is “B” and the “Increase in Neurite Number” value is given as “B”.
`Cn1c2c(c3cccnc31)CCNCC2` [Example 18, 10-methyl-5,6,7,8,9,10-hexahydropyrido[3′,2′:4,5]pyrrolo[2,3-d]azepine] had an EC50 at 5-HT2A [1] of 101 to 1000 nM. This compound showed an IC50 on 5-HT2A [2] of 101 to 1000 nM.
Turning to `COc1ccc2c3c([nH]c2n1)CCN(C1COC1)CC3` [Example 4, 2-methoxy-7-(oxetan-3-yl)-5,6,7,8,9,10 hexahydropyrido[3′,2′:4,5]pyrrolo[2,3-d]azepine], the EC50 at 5-HT2A [1] is above 10000 nM. For the same compound, the IC50 at 5-HT2A [2] was above 10000 nM. In addition, in the assay on rat cortical neurons, the “Increase in Neurite Length” value is “B” and the “Increase in Neurite Number” value is reported as “B”.
`Brc1ccc2c3c([nH]c2n1)CCN(C1COC1)CC3` [Example 24, 2-bromo-7-(oxetan-3-yl)-5,6,7,8,9,10-hexahydropyrido[3′,2′:4,5]pyrrolo[2,3-d]azepine] gave an EC50 at 5-HT2A [1] of 1000 to 10000 nM. At 5-HT2A [2], this compound registered a half-inhibitory concentration (IC50) of 1000 to 10000 nM.
Regarding `c1cnc2[nH]c3c(c2c1)CCNCC3` [Example 17, 5,6,7,8,9,10-hexahydropyrido[3′,2′:4,5] pyrrolo[2,3-d] azepine], the EC50 on 5-HT2A [1] lay within 101 to 1000 nM. The compound also registered an IC50 on 5-HT2A [2] of 101 to 1000 nM.
On to `COc1cc2c3c([nH]c2cn1)CCN(C)CC3` [Example 14, 3-methoxy-7-methyl-5,6,7,8,9,10-hexahydropyrido[4′,3′:4,5]pyrrolo[2,3-d]azepine], for which the EC50 at 5-HT2A [1] is above 10000 nM. The compound further showed an IC50 on 5-HT2A [2] above 10000 nM.
Consider `Cc1ccc2c3c(n(C)c2n1)CCN(C)CC3` [Example 12, 2,7,10-trimethyl-5,6,7,8,9,10-hexahydropyrido[3′,2′:4,5]pyrrolo[2,3-d]azepine], for which the EC50 at 5-HT2A [1] lay in the range of 101 to 1000 nM. Further, the IC50 on 5-HT2A [2] fell in the range of 1000 to 10000 nM. Further, in the assay on rat cortical neurons, the “Increase in Neurite Length” value is on record as “B” and the “Increase in Neurite Number” value was “B”.
Compound `Cn1c2c(c3cccnc31)CCN(C1COC1)CC2` [Example 23, 10-methyl-7-(oxetan-3-yl)-5,6,7,8,9,10-hexahydropyrido[3′,2′:4,5]pyrrolo[2,3-d]azepine] returned a half-maximal effective concentration (EC50) on 5-HT2A [1] of 1000 to 10000 nM. In addition, on 5-HT2A [2], the IC50 is above 10000 nM.
Compound `CN1CCc2[nH]c3ncc(Cl)cc3c2CC1` [Example 26, 3-chloro-7-methyl-5,6,7,8,9,10-hexahydropyrido[3′,2′:4,5]pyrrolo[2,3-d]azepine] gave an EC50 at 5-HT2A [1] of 101 to 1000 nM. This compound also displayed an IC50 at 5-HT2A [2] of 101 to 1000 nM.
As to `Brc1ccc2c3c([nH]c2n1)CCNCC3` [Example 16, 2-bromo-5,6,7,8,9,10-hexahydropyrido[3′,2′:4,5]pyrrolo[2,3-d]azepine], on 5-HT2A [1], the concentration for a half-maximal effect (EC50) fell in the range of 10 to 100 nM. Also, the IC50 on 5-HT2A [2] lay within 101 to 1000 nM.
Turning to `Clc1cnc2[nH]c3c(c2c1)CCN(C1COC1)CC3` [Example 27, 3-chloro-7-(oxetan-3-yl)-5,6,7,8,9,10-hexahydropyrido[3′,2′:4,5]pyrrolo[2,3-d]azepine], the EC50 on 5-HT2A [1] is 1000 to 10000 nM. This compound showed a half-maximal inhibitory concentration (IC50) at 5-HT2A [2] of 1000 to 10000 nM.
Compound `CN1CCc2c(n(C)c3ncccc23)CC1` [Example 21, 7,10-dimethyl-5,6,7,8,9,10-hexahydropyrido[3′,2′:4,5]pyrrolo[2,3-d]azepine] yielded an EC50 on 5-HT2A [1] of 101 to 1000 nM. On 5-HT2A [2], the IC50 lay in the range of 101 to 1000 nM.
For `Cn1c2c(c3cc(Cl)cnc31)CCNCC2` [Example 28, 3-chloro-10-methyl-5,6,7,8,9,10-hexahydropyrido[3′,2′:4,5]pyrrolo[2,3-d]azepine], the EC50 on 5-HT2A [1] lay within 101 to 1000 nM. This compound came in with a half-inhibitory concentration (IC50) at 5-HT2A [2] of 101 to 1000 nM.
Take `c1cnc2[nH]c3c(c2c1)CCN(C1COC1)CC3` [Example 22, 7-(oxetan-3-yl)-5,6,7,8,9,10-hexahydropyrido[3′,2′:4,5]pyrrolo[2,3-d]azepine]: the EC50 at 5-HT2A [1] is above 10000 nM. In addition, the IC50 on 5-HT2A [2] is above 10000 nM.
`Clc1cnc2[nH]c3c(c2c1)CCNCC3` [Example 13, 3-chloro-5,6,7,8,9,10-hexahydropyrido[3′,2′:4,5]pyrrolo[2,3-d] azepine]: the EC50 at 5-HT2A [1] was in the range of 10 to 100 nM. On 5-HT2A [2], the IC50 is 101 to 1000 nM.
Turning to `Cn1c2c(c3cc(Cl)cnc31)CCN(C1COC1)CC2` [Example 29, 3-chloro-10-methyl-7-(oxetan-3-yl)-5,6,7,8,9,10-hexahydropyrido[3′,2′:4,5]pyrrolo[2,3-d]azepine], the EC50 on 5-HT2A [1] lay in the range of 1000 to 10000 nM. This compound yielded an IC50 on 5-HT2A [2] above 10000 nM.
In the same order, the values of `Cn1c2c(c3ccc(Br)nc31)CCNCC2` [Example 25, 2-bromo-10-methyl-5,6,7,8,9,10-hexahydropyrido[3′,2′:4,5]pyrrolo[2,3-d]azepine] are 10 to 100 nM and 101 to 1000 nM.
The corresponding values for `CN1CCc2[nH]c3ncccc3c2CC1` [Example 20, 7-methyl-5,6,7,8,9,10-hexahydropyrido[3′,2′:4,5]pyrrolo[2,3-d]azepine] are 101 to 1000 nM and 101 to 1000 nM.
In the case of `COc1ccc2[nH]c3c(c2n1)CCN(C)CC3` [Example 15, 2-methoxy-8-methyl-5,6,7,8,9,10-hexahydropyrido[2′,3′:4,5]pyrrolo[2,3-d]azepine], the EC50 on 5-HT2A [1] fell in the range of 101 to 1000 nM. At 5-HT2A [2], this compound showed an IC50 of 101 to 1000 nM.
In turn, `CN1CCc2c(n(C)c3ncc(Cl)cc23)CC1` [Example 30, 3-chloro-7,10-dimethyl-5,6,7,8,9,10-hexahydropyrido[3′,2′:4,5]pyrrolo[2,3-d]azepine] gave an EC50 on 5-HT2A [1] of 101 to 1000 nM. Besides, the IC50 at 5-HT2A [2] was in the range of 101 to 1000 nM.
